Experimental data reported in patent US8216786B2, “Genetic polymorphisms associated with cardiovascular diseases, methods of detection and uses thereof” (Celera Corporation, priority 2008, dated 2012).

Tested on: individuals who have previously had an MI
Test: CARE trial: effect of pravastatin vs placebo on coronary events (endpt1, rmi) by SNP genotype subgroup
Format: in vivo, human
Protocol: In Tables 21-22, the column labeled “Endpoint” indicates whether the endpoint that was analyzed was the primary endpoint of the CARE study (a composite endpoint of fatal coronary event or nonfatal MI, and identified as “endpt1”) or a composite endpoint of confirmed fatal or nonfatal MI (identified as “rmi”). […] As used herein, the term “benefit” (with respect to a preventive or therapeutic drug treatment) is defined as achieving a reduced risk for a disease that the drug is intended to treat or prevent (e.g., CVD such as CHD, particularly MI, or hypertension) by administering the drug treatment, compared with the risk for the disease in the absence of receiving the drug treatment (or receiving a placebo in lieu of the drug treatment) for the same genotype. […] J. […] (1996) New England Journal of Medicine 335: 1001-1009. […] A well-documented MI was one of the enrollment criteria for entry into the CARE study. Patients were enrolled in the CARE trial from 80 participating study centers. […] For the study of CARE described in this Example and shown in Tables 21-22, two endpoints were investigated: the primary endpoint of CARE (a composite endpoint of fatal coronary event or nonfatal MI, and identified as “endpt1” in the Endpoint column of Tables 21-22) and a composite endpoint of confirmed fatal or nonfatal MI (identified as “rmi” in the Endpoint column of Tables 21-22). […] HR stands for Hazard Ratio, which is a concept similar to Odds Ratio (OR). The HR in event-free survival analysis is the effect of an explanatory variable on the hazard or risk of an event. […] In Table 21, p-interaction values were calculated. An interaction (or effect modification) is formed when a third variable modifies the relation between an exposure and outcome. […] Genotype and drug interaction is present when the effect of statins (incidence rate of disease in statin-treated group, as compared to placebo) differs in patients with different genotypes.

[1] = endpt1, hCV370782 rs9841174 SERPINI2, CC
[2] = endpt1, hCV370782 rs9841174 SERPINI2, CT + TT
[3] = endpt1, hCV795442 rs375947 IL12RB1, AA
[4] = endpt1, hCV795442 rs375947 IL12RB1, GA + GG
[5] = endpt1, hCV818008 rs5918 ITGB3, CC
[6] = endpt1, hCV818008 rs5918 ITGB3, CT + TT
[7] = endpt1, hCV904973 rs7412 APOE, CC
[8] = endpt1, hCV904973 rs7412 APOE, TC + TT
[9] = endpt1, hCV997884 rs512770, AG + GG
[10] = endpt1, hCV2553030 rs11230562 CD6, TC + CC
[11] = endpt1, hCV2553030 rs11230562 CD6, TT
[12] = endpt1, hCV2769554 rs1805010 IL4R, GA + AA
[13] = endpt1, hCV2769554 rs1805010 IL4R, GG
[14] = endpt1, hCV2822674 rs1801222 CUBN, AA
[15] = endpt1, hCV2822674 rs1801222 CUBN, AG + GG
[16] = endpt1, hCV2983036 rs9527025 KL, CC
[17] = endpt1, hCV2983036 rs9527025 KL, CG
[18] = endpt1, hCV2983036 rs9527025 KL, GG
[19] = endpt1, hCV2992252 rs6037651 SIGLEC1, CC
[20] = endpt1, hCV2992252 rs6037651 SIGLEC1, CT + TT
[21] = endpt1, hCV3135085 rs10795446 CUBN, GG
[22] = endpt1, hCV3187716 rs5186 AGTR1, CA + AA
[23] = endpt1, hCV3187716 rs5186 AGTR1, CC
[24] = endpt1, hCV3215409 rs267561 ITGA9, GA + AA
[25] = endpt1, hCV3215409 rs267561 ITGA9, GG
[26] = endpt1, hCV3219460 rs1799983 NOS3, TG + GG
[27] = endpt1, hCV3219460 rs1799983 NOS3, TT
[28] = endpt1, hCV7514870 rs1041981 LTA, AA
[29] = endpt1, hCV7514870 rs1041981 LTA, AC + CC
[30] = endpt1, hCV8705506 rs5516 KLK1, CG + CC
[31] = endpt1, hCV8705506 rs5516 KLK1, GG
[32] = endpt1, hCV8708473 rs1800469 TMEM91, AA
[33] = endpt1, hCV8708473 rs1800469 TMEM91, AG + GG
[34] = endpt1, hCV8708474 rs1800468 MGC4093, CC
[35] = endpt1, hCV8708474 rs1800468 MGC4093, TC + TT
[36] = endpt1, hCV8709053 rs4880 SOD2, GA + AA
[37] = endpt1, hCV8709053 rs4880 SOD2, GG
[38] = endpt1, hCV8718197 rs1050998 CXCL16, AA
[39] = endpt1, hCV8718197 rs1050998 CXCL16, GA + GG
[40] = endpt1, hCV8726337 rs5498 ICAM1, AA
[41] = endpt1, hCV8726337 rs5498 ICAM1, GA + GG
[42] = endpt1, hCV8737990 rs419598 IL1RN, CC
[43] = endpt1, hCV8737990 rs419598 IL1RN, CT + TT
[44] = endpt1, hCV8784787 rs688976, AA
[45] = endpt1, hCV8784787 rs688976, AC + CC
[46] = endpt1, hCV8804621 rs1390938 SLC18A1, AA
[47] = endpt1, hCV8804621 rs1390938 SLC18A1, AG + GG
[48] = endpt1, hCV8848630 rs7192 HLA-DRA, GG
[49] = endpt1, hCV8848630 rs7192 HLA-DRA, TG + TT
[50] = endpt1, hCV8851047 rs45614833 HLA-DPA1, CC

CC[C@H](C)C(=O)O[C@H]1C[C@H](O)C=C2C=C[C@H](C)[C@H](CC[C@@H](O)C[C@@H](O)CC(=O)O)[C@H]21 [pravastatin]
Hazard ratio, Pravastatin vs placebo (CARE, SNP hCV11170747, genotype strata in row order): 0.87 | EVENTS (Pravastatin arm) [1]: 20 | NONEVENT (Pravastatin arm) [1]: 194 | EVENTS (Pravastatin arm) [2]: 113 | NONEVENT (Pravastatin arm) [2]: 1097 | EVENTS (Pravastatin arm) [3]: 52 | NONEVENT (Pravastatin arm) [3]: 599 | EVENTS (Pravastatin arm) [4]: 80 | NONEVENT (Pravastatin arm) [4]: 691 | EVENTS (Pravastatin arm) [5]: 7 | NONEVENT (Pravastatin arm) [5]: 26 | EVENTS (Pravastatin arm) [6]: 126 | NONEVENT (Pravastatin arm) [6]: 1266 | EVENTS (Pravastatin arm) [7]: 114 | NONEVENT (Pravastatin arm) [7]: 1149 | EVENTS (Pravastatin arm) [8]: 19 | NONEVENT (Pravastatin arm) [8]: 141 | EVENTS (Pravastatin arm) (endpt1, hCV997884 rs512770, AA): 5 | NONEVENT (Pravastatin arm) (endpt1, hCV997884 rs512770, AA): 42 | EVENTS (Pravastatin arm) [9]: 126 | NONEVENT (Pravastatin arm) [9]: 1241 | EVENTS (Pravastatin arm) [10]: 129 | NONEVENT (Pravastatin arm) [10]: 1179 | EVENTS (Pravastatin arm) [11]: 3 | NONEVENT (Pravastatin arm) [11]: 107 | EVENTS (Pravastatin arm) [12]: 101 | NONEVENT (Pravastatin arm) [12]: 1001 | EVENTS (Pravastatin arm) [13]: 32 | NONEVENT (Pravastatin arm) [13]: 287 | EVENTS (Pravastatin arm) [14]: 10 | NONEVENT (Pravastatin arm) [14]: 150 | EVENTS (Pravastatin arm) [15]: 123 | NONEVENT (Pravastatin arm) [15]: 1140 | EVENTS (Pravastatin arm) [16]: 4 | NONEVENT (Pravastatin arm) [16]: 22 | EVENTS (Pravastatin arm) [17]: 32 | NONEVENT (Pravastatin arm) [17]: 363 | EVENTS (Pravastatin arm) [18]: 97 | NONEVENT (Pravastatin arm) [18]: 906 | EVENTS (Pravastatin arm) [19]: 8 | NONEVENT (Pravastatin arm) [19]: 196 | EVENTS (Pravastatin arm) [20]: 124 | NONEVENT (Pravastatin arm) [20]: 1089 | EVENTS (Pravastatin arm) [21]: 10 | NONEVENT (Pravastatin arm) [21]: 147 | EVENTS (Pravastatin arm) [22]: 128 | NONEVENT (Pravastatin arm) [22]: 1176 | EVENTS (Pravastatin arm) [23]: 5 | NONEVENT (Pravastatin arm) [23]: 112 | EVENTS (Pravastatin arm) [24]: 118 | NONEVENT (Pravastatin arm) [24]: 1057 | EVENTS (Pravastatin arm) [25]: 15 | NONEVENT (Pravastatin arm) [25]: 235 | EVENTS (Pravastatin arm) [26]: 124 | NONEVENT (Pravastatin arm) [26]: 1114 | EVENTS (Pravastatin arm) [27]: 9 | NONEVENT (Pravastatin arm) [27]: 177 | EVENTS (Pravastatin arm) [28]: 12 | NONEVENT (Pravastatin arm) [28]: 172 | EVENTS (Pravastatin arm) [29]: 121 | NONEVENT (Pravastatin arm) [29]: 1118 | EVENTS (Pravastatin arm) [30]: 66 | NONEVENT (Pravastatin arm) [30]: 749 | EVENTS (Pravastatin arm) [31]: 67 | NONEVENT (Pravastatin arm) [31]: 543 | EVENTS (Pravastatin arm) [32]: 9 | NONEVENT (Pravastatin arm) [32]: 139 | EVENTS (Pravastatin arm) [33]: 124 | NONEVENT (Pravastatin arm) [33]: 1153 | EVENTS (Pravastatin arm) [34]: 103 | NONEVENT (Pravastatin arm) [34]: 1068 | EVENTS (Pravastatin arm) [35]: 30 | NONEVENT (Pravastatin arm) [35]: 212 | EVENTS (Pravastatin arm) [36]: 105 | NONEVENT (Pravastatin arm) [36]: 954 | EVENTS (Pravastatin arm) [37]: 28 | NONEVENT (Pravastatin arm) [37]: 335 | EVENTS (Pravastatin arm) [38]: 33 | NONEVENT (Pravastatin arm) [38]: 409 | EVENTS (Pravastatin arm) [39]: 98 | NONEVENT (Pravastatin arm) [39]: 879 | EVENTS (Pravastatin arm) [40]: 31 | NONEVENT (Pravastatin arm) [40]: 430 | EVENTS (Pravastatin arm) [41]: 102 | NONEVENT (Pravastatin arm) [41]: 857 | EVENTS (Pravastatin arm) [42]: 15 | NONEVENT (Pravastatin arm) [42]: 96 | EVENTS (Pravastatin arm) [43]: 117 | NONEVENT (Pravastatin arm) [43]: 1193 | EVENTS (Pravastatin arm) [44]: 6 | NONEVENT (Pravastatin arm) [44]: 57 | EVENTS (Pravastatin arm) [45]: 126 | NONEVENT (Pravastatin arm) [45]: 1234 | EVENTS (Pravastatin arm) [46]: 8 | NONEVENT (Pravastatin arm) [46]: 69 | EVENTS (Pravastatin arm) [47]: 125 | NONEVENT (Pravastatin arm) [47]: 1218 | EVENTS (Pravastatin arm) [48]: 59 | NONEVENT (Pravastatin arm) [48]: 485 | EVENTS (Pravastatin arm) [49]: 74 | NONEVENT (Pravastatin arm) [49]: 802 | EVENTS (Pravastatin arm) [50]: 7 | NONEVENT (Pravastatin arm) [50]: 32 | EVENTS (Pravastatin arm) (endpt1, hCV8851047 rs45614833 HLA-DPA1, CT + TT): 126
